According to US10710992B2, “Substituted pyridinones as bromodomain inhibitors” (Zenith Epigenetics Ltd., priority 2014, dated 2020):

Columns and labels:
[1] = system: c-myc in Human AML MV4-11 cells; test: Inhibition of cMYC expression in cancer cell lines (mRNA, real-time PCR); type: cell-based; conditions: 3 h, cMYC mRNA normalized to Cyclophilin; for IC50: Homo sapiens
Procedure: MV4-11 cells (CRL-9591) were plated at a density of 2.5×10^4 cells per well in 96 well U-bottom plates and treated with increasing concentrations of test compound or DMSO (0.1%) in IMDM media containing 10% FBS and penicillin/streptomycin, and incubated for 3 h at 37° C. Triplicate wells were used for each concentration. Cells were pelleted by centrifugation and harvested using the mRNA Catcher PLUS kit according to manufacturer's instructions. The eluted mRNA isolated was then used in a one-step quantitative real-time PCR reaction, using components of the RNA UltraSense™ One-Step Kit (Life Technologies) together with Applied Biosystems TaqMan® primer-probes for cMYC and Cyclophilin. Real-time PCR plates were run on a ViiA™ 7 real time PCR machine (Applied Biosystems), data was analyzed, normalizing the Ct values for cMYC to an internal control, prior to determining the fold expression of each sample, relative to the control.

[2] = system: hIL-6 mRNA; test: Inhibition of hIL-6 mRNA transcription in LPS-stimulated U937 cells; type: cell-based; conditions: Homo sapiens, U-937; PMA-differentiated U937 cells, 1 h pretreatment, LPS 1 ug/mL, 3 h; read-out: IL-6 activity
Procedure: Human leukemic monocyte lymphoma U937 cells (CRL-1593.2) were plated at a density of 3.2×10^4 cells per well in a 96-well plate in 100 μL RPMI-1640 containing 10% FBS and penicillin/streptomycin, and differentiated into macrophages for 3 days in 60 ng/mL PMA ([…]) at 37° C. in 5% CO2 prior to the addition of compound. The cells were pretreated for 1 h with increasing concentrations of test compound in 0.1% DMSO prior to stimulation with 1 ug/mL lipopolysaccharide from Escherichia coli. Triplicate wells were used for each concentration. The cells were incubated at 37° C., 5% CO2 for 3 h before the cells were harvested. At time of harvest, media was removed and cells were rinsed in 200 μL PBS. Cells were harvested using the mRNA Catcher PLUS kit according to manufacturer's instructions. The eluted mRNA was then used in a one-step quantitative real-time PCR reaction using components of the RNA UltraSense™ One-Step Kit (Life Technologies) together with Applied Biosystems TaqMan® primer-probes for hIL-6 and Cyclophilin. Real-time PCR plates were run on a ViiA™ 7 real time PCR machine (Applied Biosystems), data was analyzed, normalizing the Ct values for hIL-6 to an internal control, prior to determining the fold expression of each sample, relative to the control.

[3] = target: T1, Brd4 bromodomain 1 (BRD4(1)) (Homo sapiens, UniProt O60885); test: Inhibition of tetra-acetylated histone H4 binding to BET bromodomain (HTRF/FRET); conditions: His-tagged bromodomain 200 nM, tetra-acetylated histone H4 peptide, 2 h room temperature
T1 construct: made in house; host or cells: E. coli BL21(DE3)
Procedure: Proteins were cloned and overexpressed with a N-terminal 6× His tag, then purified by nickel affinity followed by size exclusion chromatography. Briefly, E. coli BL21(DE3) cells were transformed with a recombinant expression vector encoding N-terminally Nickel affinity tagged bromodomains from Brd2, Brd3, Brd4. Cell cultures were incubated at 37° C. with shaking to the appropriate density and induced overnight with IPTG. The supernatant of lysed cells was loaded onto Ni-IDA column for purification. Eluted protein was pooled, concentrated and further purified by size exclusion chromatography. Fractions representing monomeric protein were pooled, concentrated, aliquoted, and frozen at −80° C. for use in subsequent experiments.
Binding of tetra-acetylated histone H4 and BET bromodomains was confirmed by a Homogenous Time Resolved Fluorescence Resonance Energy Transfer (HTRF®) method. N-terminally His-tagged bromodomains (200 nM) and biotinylated tetra-acetylated historic H4 peptide (25-50 nM, Millipore) were incubated in the presence of Europium Cryptate-labeled streptavidin (Cisbio Cat. #610SAKLB) and XL665-labeled monoclonal anti-His antibody (Cisbio Cat. #61HISXLB) in a white 96 well microtiter plate (Greiner). For inhibition assays, serially diluted test compound was added to these reactions in a 0.2% final concentration of DMSO. Duplicate wells were used for each concentration tested. Final buffer concentrations were 30 mM HEPES pH 7.4, 30 mM NaCl, 0.3 mM CHAPS, 20 mM phosphate pH 7.0, 320 mM KF, 0.08% BSA. After a 2 h incubation at room temperature, fluorescence was measured at 665 and 620 nm with a SynergyH4 plate reader (Biotek). The binding inhibitory activity was shown by a decrease in 665 nm relative to […] fluorescence. IC50 values were determined from a dose response curve.

[4] = system: hIL-17 mRNA; test: Inhibition of hIL-17 mRNA transcription in OKT3-stimulated peripheral blood mononuclear cells; type: cell-based; conditions: human PBMC, 1 h pretreatment, OKT3 antibody, 6 h; read-out: IL-17 activity
Procedure: Human peripheral blood mononuclear cells were plated (2.0×10^5 cells per well) in a 96-well plate in 45 μL. OpTimizer T Cell expansion media (Life Technologies) containing 20 ng/ml IL-2 and penicillin/streptomycin. The cells were treated with increasing concentrations of the test compound or DMSO (0.1%), and incubated at 37° C., 5% CO2 for 1 h before addition of 10× stock OKT3 antibody at 10 ug/ml in media. Triplicate wells were used for each concentration. Cells were incubated at 37° C., 5% CO2 for 6 h before the cells were harvested. At time of harvest, cells were pelleted by centrifugation at 800 rpm for 5 min. Cells were harvested using the mRNA Catcher PLUS kit according to manufacturer's instructions. The eluted mRNA was then used in a one-step quantitative real-time PCR reaction, using components of the RNA UltraSense™ One-Step Kit (Life Technologies) together with Applied Biosystems TaqMan® primer-probes for hIL-17 and Cyclophilin. Real-time PCR plates were run on a ViiA™ 7 real time PCR machine (Applied Biosystems), data was analyzed, normalizing the Ct values for hIL-17 to an internal control, prior to determining the fold induction of each unknown sample, relative to the control.

[5] = system: Human AML MV-4-11 cells; test: Inhibition of cell proliferation in cancer cell lines (CellTiter Aqueous One); type: cell-based; conditions: MV4-11 cells, 72 h; for IC50: Homo sapiens
Procedure: MV4-11 cells (CRL-9591) were plated at a density of 5×10^4 cells per well in 96 well flat bottom plates and treated with increasing concentrations of test compound or DMSO (0.1%) in IMDM media containing 10% FBS and penicillin/streptomycin. Triplicate wells were used for each concentration and a well containing only media was used as a control. Plates were incubated at 37° C., 5% CO2 for 72 h before adding 20 μL of the CellTiter Aqueous One Solution (Promega) to each well and incubated at 37° C., 5% CO2 for an additional 3-4 h. The absorbance was read at 490 nm in a spectrophotometer and the percentage of cell titer relative to DMSO-treated cells was calculated after correcting for background by subtracting the blank well's signal. IC50 values were calculated using the GraphPad Prism software.

Row | Compound | IC50 [2] | IC50 [3] | IC50 [4] | IC50 [5] | IC50 [1] | c-myc activity [1] | Cell Proliferation activity [5]
1 | Cc1noc(C)c1-c1c[nH]c(=O)c(NCc2ccc(I)cc2)c1 [Example 24, 5-(3,5-dimethylisoxazol-4-yl)-3-((4-iodobenzyl)amino)pyridin-2(1H)-one] | 3000 to 30000 nM | ≤ 300 nM |  |  |  | Not Active | Not Active
2 | Cc1noc(C)c1-c1c[nH]c(=O)c(NCc2ccc3ccccc3c2)c1 [Example 33, 5-(3,5-dimethylisoxazol-4-yl)-3-((naphthalen-2-ylmethyl)amino)pyridin-2(1H)-one] | 300 to 3000 nM | 300 to 3000 nM |  | 3000 to 30000 nM | 3000 to 30000 nM |  | 
3 | Cc1noc(C)c1Nc1cc(-c2c(C)noc2C)c[nH]c1=O [Example 34, 5-(3,5-dimethylisoxazol-4-yl)-3-((3,5-dimethylisoxazol-4-yl)amino)pyridin-2(1H)-one] | 300 to 3000 nM | ≤ 300 nM |  | 300 to 3000 nM | 300 to 3000 nM |  | 
4 | Cc1noc(C)c1-c1c[nH]c(=O)c(NCc2ccc3ccccc3n2)c1 [Example 35, 5-(3,5-dimethylisoxazol-4-yl)-3-((quinolin-2-ylmethyl)amino)pyridin-2(1H)-one] | 300 to 3000 nM | ≤ 300 nM |  | 300 to 3000 nM | 3000 to 30000 nM |  | 
5 | Cc1noc(C)c1-c1c[nH]c(=O)c(NCc2ccc(C#N)s2)c1 [Example 36, 5-(((5-(3,5-dimethylisoxazol-4-yl)-2-oxo-1,2-dihydropyridin-3-yl)amino)methyl)thiophene-2-carbonitrile] | 300 to 3000 nM | ≤ 300 nM |  | 3000 to 30000 nM | 3000 to 30000 nM |  | 
6 | Cc1noc(C)c1-c1c[nH]c(=O)c(NCc2ncccc2Cl)c1 [Example 37, 3-(((3-chloropyridin-2-yl)methyl)amino)-5-(3,5-dimethylisoxazol-4-yl)pyridin-2(1H)-one] | 300 to 3000 nM | 300 to 3000 nM |  |  |  | Not Active | Not Active
7 | Cc1noc(C)c1-c1c[nH]c(=O)c(NCc2nc3ccccc3s2)c1 [Example 40, 3-((benzo[d]thiazol-2-ylmethyl)amino)-5-(3,5-dimethylisoxazol-4-yl)pyridin-2(1H)-one] | 300 to 3000 nM | 300 to 3000 nM |  | 3000 to 30000 nM | 300 to 3000 nM |  | 
8 | Cc1ncccc1Oc1cc(-c2c(C)noc2C)cnc1O [Example 43, 5-(3,5-dimethylisoxazol-4-yl)-3-((2-methylpyridin-3-yl)oxy)pyridin-2-ol] | 3000 to 30000 nM | 300 to 3000 nM |  |  |  | Not Active | Not Active

Continued, in another order:

Row | IC50 [2] | IC50 [3] | IC50 [4] | IC50 [5] | Compound | IC50 [1] | c-myc activity [1] | Cell Proliferation activity [5]
9 | 300 to 3000 nM | ≤ 300 nM | 300 to 3000 nM | 300 to 3000 nM | Cc1noc(C)c1-c1c[nH]c(=O)c(NCc2ccccc2)c1 [Example 4, 3-(benzylamino)-5-(3,5-dimethylisoxazol-4-yl)pyridin-2(1H)-one] | 300 to 3000 nM |  | 
10 | 300 to 3000 nM | 300 to 3000 nM |  | 3000 to 30000 nM | Cc1noc(C)c1-c1c[nH]c(=O)c(OCc2ccccc2)c1 [Example 14, 3-(benzyloxy)-5-(3,5-dimethylisoxazol-4-yl)pyridin-2(1H)-one] | 3000 to 30000 nM |  | 
11 | 300 to 3000 nM | ≤ 300 nM | 300 to 3000 nM | 3000 to 30000 nM | Cc1noc(C)c1-c1c[nH]c(=O)c(NCc2ccccn2)c1 [Example 17, 5-(3,5-dimethylisoxazol-4-yl)-3-((pyridin-2-ylmethyl)amino)pyridin-2(1H)-one] | 300 to 3000 nM |  | 
12 | 300 to 3000 nM | ≤ 300 nM | 300 to 3000 nM | 300 to 3000 nM | Cc1noc(C)c1-c1c[nH]c(=O)c(NC(C)c2ccccn2)c1 (stereo not shown) [Example 20, 5-(3,5-dimethylisoxazol-4-yl)-3-((1-(pyridin-2-yl)ethyl)amino)pyridin-2(1H)-one] | 300 to 3000 nM |  | 
13 | 300 to 3000 nM | ≤ 300 nM |  | 300 to 3000 nM | Cc1noc(C)c1-c1c[nH]c(=O)c(NCc2ccc(F)cc2)c1 [Example 21, 5-(3,5-dimethylisoxazol-4-yl)-3-((4-fluorobenzyl)amino)pyridin-2(1H)-one] | 300 to 3000 nM |  | 
14 | 300 to 3000 nM | 300 to 3000 nM |  | 3000 to 30000 nM | Cc1noc(C)c1-c1c[nH]c(=O)c(OCc2ccc(F)cc2)c1 [Example 27, 5-(3,5-dimethylisoxazol-4-yl)-3-((4-fluorobenzyl)oxy)pyridin-2(1H)-one] | 300 to 3000 nM |  | 
15 | 300 to 3000 nM | ≤ 300 nM |  | 300 to 3000 nM | Cc1noc(C)c1-c1c[nH]c(=O)c(NCc2nccs2)c1 [Example 30, 5-(3,5-dimethylisoxazol-4-yl)-3-((thiazol-2-ylmethyl)amino)pyridin-2(1H)-one] | 3000 to 30000 nM |  | 
16 | ≤ 300 nM | ≤ 300 nM |  | 300 to 3000 nM | Cc1noc(C)c1-c1c[nH]c(=O)c(NCc2cccc3ncccc23)c1 [Example 39, 5-(3,5-dimethylisoxazol-4-yl)-3-((quinolin-5-ylmethyl)amino)pyridin-2(1H)-one] | 300 to 3000 nM |  | 
